Measured values taken from PMC12689286, “Enhanced therapeutics of cabazitaxel via polycarboxylate conjugation: improved solubility, safety, and antitumor efficacy” (Frontiers in Immunology, 2025).

Assays:
H460 = experiment: MTS cytotoxicity, H460; format: cell-based; details: Homo sapiens, NCI-H460
Description: (§1) Human cancer cell lines were cultured in basic medium (10% fetal bovine serum (FBS)+1% double antibody solution) (Biological Industries) at 37°C in a 5% CO2 incubator. Effects of CTXs on cell proliferation and viability were measured by an MTS (Promega Corporation) assay. Absorbance values at 490 nm were measured using a microplate reader (Thermo Scientific, Varioskan Flash) ([22]).

3T3 = experiment: MTS cytotoxicity, 3T3 (non-tumor); format: cell-based; details: Mus musculus, NIH3T3, 3T3 non-tumor cell line
H358 = experiment: MTS cytotoxicity, H358; format: cell-based; details: Homo sapiens, NCI-H358
Description: as §1

DU145 = experiment: MTS cytotoxicity, DU145; format: cell-based; details: Homo sapiens, DU-145
Description: as §1

MCF-7 xenografts = experiment: MCF-7 breast cancer xenograft, tumor volume; format: in vivo, BALB/c nude mice; details: MCF-7 xenograft, 9.6 μmol/kg
Description: (§2) All animal experiments were conducted in accordance with protocols approved by the Institutional Animal Care and Use Committee of Peking Union Medical College. Male BALB/c nude mice (6–8 weeks old) and female KM mice (6–8 weeks old) were purchased from Charles River Laboratories (Beijing, China) and maintained under specific pathogen-free conditions.
MCF-7 Breast Cancer Model: Female BALB/c nude mice bearing MCF-7 xenografts (2×10^6 cells/mouse) were randomized into treatment groups as described above, with an adjusted dose of 9.6 μmol/kg for all CTX formulations.

[1] = Lipid-aqueous (octanol/water) partition coefficient; format: physicochemical; details: room temperature
Description: CTXs were dissolved in octanol, and an equal volume of water was added, followed by shaken at 100 rpm for 24 h at room temperature. The upper octanol phase and lower water phase were separated by centrifugation. The supernatant was analyzed by HPLC (Bruker SolanX 70 FT-MS; Agilent 6540TOF) ([21]).

HT-29 = experiment: MTS cytotoxicity, HT-29; format: cell-based; details: Homo sapiens; HT-29, MTS
Description: as §1

Fadu = experiment: MTS cytotoxicity, Fadu; format: cell-based; details: Homo sapiens
Description: as §1

A549 = experiment: MTS cytotoxicity, A549; format: cell-based; details: Homo sapiens
Description: as §1

MCF-7 = experiment: MTS cytotoxicity, MCF-7; format: cell-based; details: Homo sapiens, MCF7; MCF-7, MTS
Description: as §1

DU145 cells = experiment: Cell cycle arrest (PI, flow cytometry); format: cell-based, human; details: 24 h
Description: Cells were incubated with drugs for 24 h. Fixed cells were incubated with RNase A and stained with propidium iodide (PI). DNA content was determined in a flow cytometer (BD FACS CaliburTM Flow Cytometer, USA) ([23]).

[2] = tested on: DU145 prostate cancer model; experiment: DU145 prostate cancer xenograft, tumor volume; format: in vivo, BALB/c nude mice; details: 3 μmol/kg tail vein, three times at 3-day intervals, control 500 ± 45 mm³
Description: as §2
DU145 Prostate cancer model: DU145 cells (3×10^6 cells/mouse) were subcutaneously inoculated into the right flank of BALB/c nude mic. When tumors reached approximately 100 mm³, mice were randomly divided into four treatment groups (n=6/group): (a) Vehicle control; (b) CTX (3 μmol/kg); (c) CTX-TTHA (3 μmol/kg); (d) CTX-DTPA (3 μmol/kg). Treatments were administered via tail vein injection three times at 3-day intervals. Major organs were collected for histopathological examination after the final administration.

PC-3 = experiment: MTS cytotoxicity, PC-3; format: cell-based; details: Homo sapiens; PC-3, MTS
Description: as §1

LN229 = experiment: MTS cytotoxicity, LN229; format: cell-based; details: Homo sapiens, LN-229
Description: as §1

Bel-7402 = experiment: MTS cytotoxicity, Bel-7402; format: cell-based; details: Homo sapiens; Bel-7402, MTS
Description: as §1

HCT 116 = experiment: MTS cytotoxicity, HCT 116; format: cell-based; details: Homo sapiens; HCT 116, MTS
Description: as §1

SK-OV-3 = experiment: MTS cytotoxicity, SK-OV-3; format: cell-based; details: Homo sapiens; SK-OV-3, MTS
Description: as §1

L-02 = experiment: MTS cytotoxicity, L-02 (non-tumor); format: cell-based; details: Homo sapiens, L02, L-02 non-tumor cell line
Description: as §1

H520 = experiment: MTS cytotoxicity, H520; format: cell-based; details: Homo sapiens, NCI-H520
Description: as §1

Hemolysis test = format: cell-based, SD rats; details: SD, rat, rat red blood cells, 2% (v/v) suspension, 37 °C, 1.5 h
Description: (§3) The hemolytic potential of CTX formulations was evaluated using rat red blood cells (RBCs). Briefly, whole blood was collected from the abdominal aorta of anesthetized SD rats into ACD anticoagulant (blood:ACD = 1:4, v/v). The blood was diluted with normal saline (4:5, v/v) and centrifuged at 450 g for 10 min. The RBC pellet was washed three times with normal saline until the supernatant was clear. The washed RBCs were then resuspended in normal saline to prepare a 2% (v/v) suspension.
(§4) For the assay, 500 μL of the 2% RBC suspension was mixed with an equal volume of serially diluted drugs or controls in 1.5 mL tubes. The controls included: Negative control (0% hemolysis): normal saline. Positive control (100% hemolysis): distilled water. Solvent control: the vehicle for unmodified CTX (2.5% Tween 80 + 2.5% anhydrous ethanol + 95% normal saline). The mixtures were incubated at 37 °C for 1.5 h and then centrifuged at 450 g for 5 min. Subsequently, 150 μL of the supernatant from each tube was transferred to a 96-well plate, and the absorbance at 545 nm (OD545) was measured using a microplate reader. The percentage of hemolysis was calculated using the following formula: Hemolysis (%) = [(ODsample - ODnegative control)/(ODpositive control - ODnegative control)] × 100.

[3] = tested on: rat red blood cells (RBCs); experiment: Hemolysis test; format: cell-based, SD rats; details: vs unmodified CTX
Description: as §3, §4

[4] = Systemic toxicity in H22 tumor-bearing mice (body weight, blood count); format: in vivo, KM mice; details: H22 mice, throughout treatment, across all dose groups (9.6 and 19.1 μmol/kg)
Description: H22 hepatoma model: Female KM mice were subcutaneously implanted with H22 cells (2×10^6 cells/mouse) and assigned to six groups: (a) Vehicle control; (b) CTX (9.6 μmol/kg in 5% glucose with 2.5% ethanol/2.5% Tween 80); (c) CTX-TTHA (9.6 μmol/kg in saline); (d) CTX-DTPA (9.6 μmol/kg in saline); (e) CTX-TTHA (19.1 μmol/kg in saline); (f) CTX-DTPA (19.1 μmol/kg in saline).
Treatments were administered every other day for four doses (three doses for CTX group due to weight loss >15%). Peripheral blood samples were collected for complete blood count analysis using an automated hematology analyzer.

Tissue distribution = details: CTX metabolite after CTX-DTPA 6 μmol/kg iv, SD rats
Description: (§5) Male and female SD rats (200–220 g) received intravenous injections of CTX or CTX-DTPA (6 μmol/kg). CTX was dissolved in 2.5% Tween 80/2.5% EtOH/saline, while CTX-DTPA used saline alone. Blood samples were collected at 5 min to 24 h post-dose. Tissues (heart, liver, spleen, lung, kidney, thymus) and excreta were collected at 15 min, 2 h, 4 h, and 12 h. Plasma and tissue samples were processed by liquid-liquid extraction with n-butanol and analyzed via LC-MS/MS (Agilent Poroshell 120 EC-C18 column; 0.05% formic acid/acetonitrile gradient). Pharmacokinetic parameters were calculated using DAS 2.0 via non-compartmental analysis.

[5] = Plasma pharmacokinetics (non-compartmental); details: SD rats
Description: as §5

[6] = CTX-DTPA 6 μmol/kg iv, plasma, CTX metabolite derived from CTX-DTPA

COC1C(=O)C2(C)C(OC)CC3OCC3(OC(C)=O)C2C(OC(=O)c2ccccc2)C2(O)CC(OC(=O)C(OC(=O)CN(CCN(CCN(CCN(CC(=O)O)CC(=O)O)CC(=O)O)CC(=O)O)CC(=O)O)C(NC(=O)OC(C)(C)C)c3ccccc3)C(C)=C1C2(C)C (stereo not shown) [CTX-TTHA]
IC50 (H460): 1.9 ± 0.7 nM | IC50 (3T3): 8 ± 3.3 nM | IC50 (H358): 1.6 ± 0.4 nM | IC50 (DU145): 4.1 ± 2.2 nM | tumor volume at study endpoint (MCF-7 xenografts): 190 ± 22 mm³ | logP at 24 h [1]: -1.37 ± 0.38 | IC50 (HT-29): 8.4 ± 3.8 nM | IC50 (Fadu): 2.3 ± 0.9 nM | IC50 (A549): 3.3 ± 1.6 nM | IC50 (MCF-7): 5.5 ± 2.3 nM | cells arrested in G2/M (DU145 cells; DU145, 1 nM): 15.1 ± 0.1% | cells arrested in G2/M (DU145 cells; DU145, 25 nM): 69.9 ± 12.6% | final tumor volume [2]: 270 ± 28 mm³ | IC50 (PC-3): 7.4 ± 2.8 nM | IC50 (LN229): 7.6 ± 3.1 nM | IC50 (Bel-7402): 2.4 ± 0.4 nM | IC50 (HCT 116): 2.1 ± 0.9 nM | IC50 (SK-OV-3): 3.2 ± 0.8 nM | IC50 (L-02): 6.8 ± 0.4 nM | IC50 (H520): 2.1 ± 0.6 nM | hemolysis at 1.5 h, 300 nmol/mL (Hemolysis test; 300 nmol/mL (maximum tested), read-out: hemolysis rate): 28.3 ± 13.9% | hemolysis at 1.5 h (Hemolysis test; concentrations up to 150 nmol/mL): < 2% | improvement in hemocompatibility over unmodified CTX [3]: 64 fold | WBC counts [4]: 3.50-5.60 ×10^9/L

CO[C@H]1C(=O)[C@]2(C)[C@@H](OC)C[C@H]3OC[C@@]3(OC(C)=O)[C@H]2[C@H](OC(=O)c2ccccc2)[C@]2(O)C[C@H](OC(=O)[C@H](O)[C@@H](NC(=O)OC(C)(C)C)c3ccccc3)C(C)=C1C2(C)C [CTX/CTX-DTPA]
tissue concentration (Tissue distribution; heart, 15 min): * 2.38 ± 0.46 μg/kg | tissue concentration (Tissue distribution; heart, 2 h): *** 2.27 ± 0.70 μg/kg | tissue concentration (Tissue distribution; heart, 4 h): *** 1.26 ± 0.20 μg/kg | tissue concentration (Tissue distribution; heart, 12 h): ** 0.41 ± 0.29 μg/kg | tissue concentration (Tissue distribution; kidney, 15 min): **** 53.38 ± 7.21 μg/kg | tissue concentration (Tissue distribution; kidney, 2 h): ** 63.87 ± 43.92 μg/kg | tissue concentration (Tissue distribution; kidney, 4 h): *** 8.74 ± 0.10 μg/kg | tissue concentration (Tissue distribution; kidney, 12 h): **** 3.14 ± 1.66 μg/kg | tissue concentration (Tissue distribution; liver, 15 min): *** 17.88 ± 1.12 μg/kg | tissue concentration (Tissue distribution; liver, 2 h): ** 10.31 ± 7.28 μg/kg | tissue concentration (Tissue distribution; liver, 4 h): ** 4.62 ± 3.48 μg/kg | tissue concentration (Tissue distribution; liver, 12 h): * 1.91 ± 1.12 μg/kg | tissue concentration (Tissue distribution; lung, 15 min): *** 12.95 ± 5.49 μg/kg | tissue concentration (Tissue distribution; lung, 2 h): **** 9.66 ± 5.84 μg/kg | tissue concentration (Tissue distribution; lung, 4 h): **** 2.44 ± 0.01 μg/kg | tissue concentration (Tissue distribution; lung, 12 h): * 1.78 ± 0.82 μg/kg | tissue concentration (Tissue distribution; spleen, 15 min): ** 5.49 ± 0.53 μg/kg | tissue concentration (Tissue distribution; spleen, 2 h): **** 8.23 ± 4.20 μg/kg | tissue concentration (Tissue distribution; spleen, 4 h): ** 2.61 ± 0.42 μg/kg | tissue concentration (Tissue distribution; spleen, 12 h): ** 1.43 ± 0.96 μg/kg | tissue concentration (Tissue distribution; thymus, 15 min): ** 1.49 ± 0.02 μg/kg | tissue concentration (Tissue distribution; thymus, 2 h): * 4.37 ± 5.02 μg/kg | tissue concentration (Tissue distribution; thymus, 4 h): * 0.79 ± 0.28 μg/kg | tissue concentration (Tissue distribution; thymus, 12 h): **** 0.80 ± 0.42 μg/kg | Cmax relative to CTX ([5]; 6 μmol/kg iv, CTX metabolite from CTX-DTPA vs CTX group, greater): 2.2 fold | AUC(0-t) [5, 6]: **** 5157.71 ± 1650.87 μg/L*h | CL [5, 6]: 25.2 ± 6.83 mL/min/kg | Cmax [5, 6]: * 6311.67 ± 1217.79 μg/L | MRT0-t [5, 6]: 0.72 ± 0.02 H | Vd [5, 6]: * 6.04 ± 1.63 L/kg | t1/2 [5, 6]: **** 2.77 ± 0.00 H
